Test results: ChEMBL document CHEMBL1201862, “PubChem BioAssay data set” (2004)
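A five-concentration, 48-hour dose response in 96-well plates underlies each endpoint, interpolated linearly between surrounding concentrations. GI50 marks 50% less growth.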 Active and inactive are the calls of the source. No stated cut-off is given here; in the data, active = GI50 up to about 1.1 µM and inactive = higher.

Experiments:
Assay in all cases: NCI-60 cell line screen, 48 h
DLD-1 = test system: DLD-1
HCC 2998 = test system: HCC 2998
HCT-116 = test system: HCT-116
HCT-15 = test system: HCT-15
IGROV-1 = test system: IGROV-1
K562 = test system: K562
MOLT-4 = test system: MOLT-4
NCI-H23 = test system: NCI-H23
NCI-H460 = test system: NCI-H460
NCI-H522 = test system: NCI-H522
RXF 393 = test system: RXF 393
SF-268 = test system: SF-268
SK-OV-3 = test system: SK-OV-3
SN12C = test system: SN12C
UACC-257 = test system: UACC-257
MDA-MB-435 = test system: MDA-MB-435
NCI/ADR-RES = test system: NCI/ADR-RES
PC-3 = test system: PC-3

Row | SMILES | GI50 (DLD-1) | GI50 (HCC 2998) | GI50 (HCT-116) | GI50 (HCT-15) [µM] | GI50 (IGROV-1) | GI50 (K562) | GI50 (MOLT-4) | GI50 (NCI-H23) | GI50 (NCI-H460) | GI50 (NCI-H522) | GI50 (RXF 393) | GI50 (SF-268) | GI50 (SK-OV-3) | GI50 (SN12C) | GI50 (UACC-257) | GI50 (MDA-MB-435) | GI50 (NCI/ADR-RES) | GI50 (PC-3)
1 | CCN(CC)CCOc1ccc(C(=C2CCCCC2)c2ccc(OCCN(CC)CC)cc2)cc1 | 1.93 µM (inactive) | 1.3 µM (inactive) | 1.25 µM (inactive) | 1.54 | 1.71 µM (inactive) | 0.267 µM (active) | 0.612 µM (active) | 1.86 µM (inactive) | 1.47 µM (inactive) | 1.76 µM (inactive) | 1.59 µM (inactive) | 1.68 µM (inactive) | 1.87 µM (inactive) | 1.66 µM (inactive) | 1.87 µM (inactive) | – | – | –
2 | O=C1c2cccc3cc([N+](=O)[O-])cc(c23)C(=O)N1NC1=NCCN1 | > 100 µM (inactive) | > 100 µM (inactive) | > 100 µM (inactive) | > 100 | > 100 µM (inactive) | > 100 µM (inactive) | > 100 µM (inactive) | > 100 µM (inactive) | > 100 µM (inactive) | > 100 µM (inactive) | > 100 µM (inactive) | > 100 µM (inactive) | > 100 µM (inactive) | > 100 µM (inactive) | > 100 µM (inactive) | – | – | –
3 | c1ccc([B-]23Oc4ccccc4[NH+]2c2ccccc2O3)cc1 (stereo not drawn) | 46 µM (inactive) | – | > 100 µM (inactive) | – | > 100 µM (inactive) | 36.2 µM (inactive) | 25.8 µM (inactive) | > 100 µM (inactive) | – | 16.2 µM (inactive) | > 100 µM (inactive) | > 100 µM (inactive) | > 100 µM (inactive) | > 100 µM (inactive) | > 100 µM (inactive) | – | – | –
4 | Nc1nc2ncn(CCO)c2c(=S)[nH]1 | > 100 µM (inactive) | > 100 µM (inactive) | > 100 µM (inactive) | > 100 | > 100 µM (inactive) | > 100 µM (inactive) | – | – | > 100 µM (inactive) | > 100 µM (inactive) | > 100 µM (inactive) | > 100 µM (inactive) | > 100 µM (inactive) | > 100 µM (inactive) | > 100 µM (inactive) | – | – | –
5 | O=[N+]([O-])c1ccccc1[S+]([O-])c1ccccc1 (stereo not drawn) | 71 µM (inactive) | 97.7 µM (inactive) | 57.9 µM (inactive) | 38.7 | 68.2 µM (inactive) | 35.1 µM (inactive) | 57 µM (inactive) | 44.5 µM (inactive) | 53 µM (inactive) | 65.6 µM (inactive) | 84.1 µM (inactive) | 77.6 µM (inactive) | > 100 µM (inactive) | 75.5 µM (inactive) | 20.7 µM (inactive) | – | – | –
6 | CN(C)c1ccc(Cc2cc(C(C)(C)C)cc(C(C)(C)C)c2O)cc1 | 21.8 µM (inactive) | 19.6 µM (inactive) | 13.2 µM (inactive) | 15.8 | 18 µM (inactive) | 11.7 µM (inactive) | 14.5 µM (inactive) | 16.1 µM (inactive) | 18.5 µM (inactive) | 18.4 µM (inactive) | 16.4 µM (inactive) | 17.3 µM (inactive) | 29.3 µM (inactive) | 16.1 µM (inactive) | 15.6 µM (inactive) | – | – | –
7 | Cc1ccc(C2=C(c3ccccc3)C(O)(c3ccccc3)C(c3ccccc3)=C2c2ccc(C)cc2)cc1 | > 100 µM (inactive) | > 100 µM (inactive) | 29.9 µM (inactive) | 35.2 | > 100 µM (inactive) | > 100 µM (inactive) | 7.93 µM (inactive) | 69.3 µM (inactive) | > 100 µM (inactive) | > 100 µM (inactive) | > 100 µM (inactive) | > 100 µM (inactive) | > 100 µM (inactive) | > 100 µM (inactive) | > 100 µM (inactive) | – | – | –
8 | O=C1c2ccc3c4ccccc4n(-c4ccccc4)c3c2C(=O)N1c1ccc(Cl)cc1 | > 100 µM (inactive) | > 100 µM (inactive) | > 100 µM (inactive) | > 100 | > 100 µM (inactive) | > 100 µM (inactive) | > 100 µM (inactive) | 8.95 µM (inactive) | > 100 µM (inactive) | > 100 µM (inactive) | > 100 µM (inactive) | > 100 µM (inactive) | > 100 µM (inactive) | > 100 µM (inactive) | > 100 µM (inactive) | – | – | –
9 | COc1cc(C2c3cc4c(cc3[C@@H](Nc3ccc(N)cc3)C3COC(=O)[C@H]23)OCO4)cc(OC)c1O (stereo partly drawn) | 4.57 µM (inactive) | 3.27 µM (inactive) | 2.7 µM (inactive) | 2.21 | 3.35 µM (inactive) | 3.13 µM (inactive) | – | 0.828 µM (active) | 0.0557 µM (active) | 2.22 µM (inactive) | 3.91 µM (inactive) | 1.63 µM (inactive) | 1.51 µM (inactive) | 0.711 µM (active) | 7.19 µM (inactive) | 10.8 µM (inactive) | 3.75 µM (inactive) | 0.446 µM (active)
10 | O=[N+]([O-])c1c(/C=N/c2ccccc2)oc(-c2ccc3c(c2)OCO3)c1-c1ccc2c(c1)OCO2 | > 100 µM (inactive) | > 100 µM (inactive) | > 100 µM (inactive) | > 100 | > 100 µM (inactive) | > 100 µM (inactive) | > 100 µM (inactive) | > 100 µM (inactive) | > 100 µM (inactive) | > 100 µM (inactive) | > 100 µM (inactive) | > 100 µM (inactive) | 44.9 µM (inactive) | > 100 µM (inactive) | > 100 µM (inactive) | – | – | –
11 | CC(C)CC(=O)N1CCN(C(=O)CC(C)C)c2ccccc21 | > 100 µM (inactive) | > 100 µM (inactive) | > 100 µM (inactive) | – | > 100 µM (inactive) | > 100 µM (inactive) | > 100 µM (inactive) | > 100 µM (inactive) | > 100 µM (inactive) | > 100 µM (inactive) | > 100 µM (inactive) | > 100 µM (inactive) | > 100 µM (inactive) | – | > 100 µM (inactive) | – | – | –
12 | CCc1cccc(C)c1NC(=O)NS(=O)(=O)c1ccc(C)cc1 | > 100 µM (inactive) | > 100 µM (inactive) | > 100 µM (inactive) | > 100 | > 100 µM (inactive) | > 100 µM (inactive) | > 100 µM (inactive) | > 100 µM (inactive) | > 100 µM (inactive) | > 100 µM (inactive) | > 100 µM (inactive) | > 100 µM (inactive) | > 100 µM (inactive) | > 100 µM (inactive) | > 100 µM (inactive) | – | – | –
13 | C=C(C)[C@H](O)C(O)CC(C)[C@@H]1CCC23CC12CCC1[C@@]2(C)CCC(OC(C)=O)C(C)(C)C2CC(OC2OC(COC(C)=O)C(O)C(O)C2O)[C@]13C (stereo partly drawn) | 5.52 µM (inactive) | 6.35 µM (inactive) | 3.8 µM (inactive) | 4.86 | 3.78 µM (inactive) | 2.42 µM (inactive) | 2.34 µM (inactive) | 7.59 µM (inactive) | 4.78 µM (inactive) | 4.35 µM (inactive) | 2.9 µM (inactive) | 5.31 µM (inactive) | 8 µM (inactive) | 6.75 µM (inactive) | 6.01 µM (inactive) | – | – | –
14 | CC(C)C(=O)Nc1nc2[nH]cnc2c(=O)[nH]1 | > 100 µM (inactive) | > 100 µM (inactive) | > 100 µM (inactive) | > 100 | > 100 µM (inactive) | > 100 µM (inactive) | > 100 µM (inactive) | > 100 µM (inactive) | > 100 µM (inactive) | > 100 µM (inactive) | > 100 µM (inactive) | > 100 µM (inactive) | > 100 µM (inactive) | > 100 µM (inactive) | > 100 µM (inactive) | – | – | –
15 | CCCCSN1C(=O)c2ccccc2C1=S | 44.8 µM (inactive) | 73.5 µM (inactive) | 40.6 µM (inactive) | > 100 | > 100 µM (inactive) | 22.9 µM (inactive) | 18.5 µM (inactive) | > 100 µM (inactive) | > 100 µM (inactive) | > 10 µM (inactive) | 81.3 µM (inactive) | 48.9 µM (inactive) | > 100 µM (inactive) | 71.3 µM (inactive) | 57.3 µM (inactive) | – | – | –
16 | Cc1cc(Cl)ccc1NC(=O)CC1SC(N)=NC1=O (stereo not drawn) | > 100 µM (inactive) | > 100 µM (inactive) | – | > 100 | > 100 µM (inactive) | > 100 µM (inactive) | > 100 µM (inactive) | > 100 µM (inactive) | > 100 µM (inactive) | > 100 µM (inactive) | > 100 µM (inactive) | > 100 µM (inactive) | > 100 µM (inactive) | > 100 µM (inactive) | > 100 µM (inactive) | – | – | –
17 | ON=C1CCC(c2ccccc2)CC1 (stereo not drawn) | > 100 µM (inactive) | > 100 µM (inactive) | > 100 µM (inactive) | > 100 | > 100 µM (inactive) | > 100 µM (inactive) | – | > 100 µM (inactive) | > 100 µM (inactive) | > 100 µM (inactive) | > 100 µM (inactive) | > 100 µM (inactive) | > 100 µM (inactive) | > 100 µM (inactive) | > 100 µM (inactive) | – | – | –
18 | N=C(NC(=S)N1CCCCC1)N1CCCCC1 | > 100 µM (inactive) | > 100 µM (inactive) | > 100 µM (inactive) | > 100 | > 100 µM (inactive) | > 100 µM (inactive) | > 100 µM (inactive) | > 100 µM (inactive) | > 100 µM (inactive) | > 100 µM (inactive) | > 100 µM (inactive) | > 100 µM (inactive) | > 100 µM (inactive) | > 100 µM (inactive) | > 100 µM (inactive) | – | – | –
19 | C(=C\c1ccc2ccccc2c1Nc1ccccc1)/c1ccccc1 | 17.3 µM (inactive) | > 70.5 µM (inactive) | 17.8 µM (inactive) | > 100 | 31 µM (inactive) | 11.9 µM (inactive) | 15.2 µM (inactive) | 19.9 µM (inactive) | 27.9 µM (inactive) | 41.6 µM (inactive) | 8.22 µM (inactive) | 36.2 µM (inactive) | 29.8 µM (inactive) | 33.6 µM (inactive) | > 75 µM (inactive) | – | – | –
